Assay [1] deals with tumor cell line 20-10-5S (hybridoma cell line). Briefly: Test 8: Inhibition of tumor cell proliferation. It is filed as cell-based. As to conditions: 48 h + 16 h tritiated thymidine incorporation; 20-10-5S cells.
Description: The tumor cell line 20-10-5S (hybridoma cell line, supplied by ATCC (American Type Culture Collection)), which produces an antibody against mouse T cells) was used for determining the antiproliferative property of test substances. The cells were cultured, at 37° C. and 5% C2, under serum-free conditions in CG medium (cell-growth medium=Iscove-ATL (+albumin+transferrin+lipids); from Vitromex, Vilshofen). Only cells which were in the logarithmic phase of growth were used for the test mixture. The test substances were pipetted in various concentrations (from 1 to 50 μM), together with 4×10^3 20-10-5S cells, into round-bottomedmicrotiter plates (total volume with medium, 200 μl). After an incubation time of 48 h (37° C. and 5% CO2), 25 μl of tritiated thymidine (=0.25 μCi/test mixture, specific activity, 23 Ci/mM) were added to the plates. During the subsequent 16 h, the radioactively labeled thymidine was incorporated into the DNA of the growing cells. The samples were filtered off with suction on glass fiber filters and the incorporated radioactivity was measured using a β counter (Beta Plate System 1205 from Wallac).
The subject of assay [2] is cyclooxygenase-dependent thrombocyte aggregation. The assay is described as follows: Test 5: Cyclooxygenase-dependent thrombocyte aggregation. Format: cell-based, human. As to conditions: arachidonic acid as inducer. The protocol: TEST 5. Cyclooxygenase-dependent thrombocyte aggregation
Platelet-rich plasma (PRP): to inhibit coagulation, human blood was treated with 1/10 of its volume of 3.8% sodium citrate solution. Centrifugation then takes place at 105×g for 20 minutes and the supernatant (PRP) is removed. 200 μl of PRP were preincubated, at 37° C. for 10 minutes, together with 30 μl of test substance in a PAP4 aggregometer (BioData). The test substance was dissolved in organic solvent and diluted 1:30 with buffer (50 mM TisHCl, pH 8.0; 90 mM NaCl). Aggregation is triggered with 20 μl of inducer. During the aggregation, stirring takes place at 800 rpm. Arachidonic acid, 5 mg/ml, was used as the inducer.
The values in the table show the concentration of the test substance which was employed in μM and, besides this, the residual activity measured in percent based on the control, which was set to be 100%. The interleukin is additionally indicated in test 4.

The mark [3] stands for this setting: Homo sapiens, 100 μM, read-out: Test 5 residual activity (cyclooxygenase-dependent thrombocyte aggregation), percent of control.
[4] abbreviates: Homo sapiens, read-out: Test 5 residual activity (cyclooxygenase-dependent thrombocyte aggregation), percent of control.

Experimental findings from US5814627A, “3, 5-disubstituted and 3, 4, 5-trisubstituted 2-isoxazolines and isoxazoles, process for their preparation and their use as pharmaceuticals” (Hoechst Aktienegesellschaft, priority 1994, dated 1998) are described below.

pIC50: −log10 of the molar value.

The term pIC50 denotes −log10 of the IC50, conventionally taken in molar units.

Take `CC(OC(=O)[C@@H](N)Cc1ccc(O)cc1)C1CC(c2cc(C(C)(C)C)c(O)c(C(C)(C)C)c2)=NO1` (mixture of isomers) [Example 88, L-Tyrosyl 1-(3-(3,5-di-tert-butyl-4-hydroxyphenyl)-2-isoxazolin-5-yl)ethyl ester, rac. 5,5'-erythro isomer mixture]: the negative-log IC50 (pIC50) in assay [1] is 5.00.
Turning to `CC(C)(C)c1cc(C2=NO[C@H]([C@H]3CO3)C2)cc(C(C)(C)C)c1O` (relative stereo) [Example 16], in assay [1], the pIC50 is 4.52.
On to `CC(C)(C)c1cc(C2=NO[C@H]([C@@H]3CO3)C2)cc(C(C)(C)C)c1O` (relative stereo) [Example 17], for which the negative logarithm of the IC50 (pIC50) in assay [1] is 4.82 to 5.10.
For the compound `C[C@@H](OP(=O)(Oc1ccccc1)Oc1ccccc1)[C@@H]1CC(c2cc(C(C)(C)C)c(O)c(C(C)(C)C)c2)=NO1` (relative stereo) [Example 85, Diphenyl 1-(3-(4-hydroxy-3,5-di-tert-butylphenyl)-2-isoxazolin-5-yl)ethyl phosphate], in assay [1], the pIC50 is more than 5.30. Also, the “Test 5 residual activity (cyclooxygenase-dependent thrombocyte aggregation), percent of control” value in assay [2] (100 μM) came to 94%.
`CC(C)(OCC1CC(c2cc(C(C)(C)C)c(O)c(C(C)(C)C)c2)=NO1)C(=O)O` (stereo not shown) [Example 3, 2-(3-(4-Hydroxy-3,5-di-tert-butylphenyl)-2-isoxazolin-5-ylmethoxy)methylpropionic acid]: the negative logarithm of the IC50 (pIC50) in assay [1] was 5.00. The activity at 100 µM in assay [2] (setting [3]) is 98%.
Consider `CC(C)(C)c1cc(C2=NOC(COC(=O)NCC(=O)O)C2)cc(C(C)(C)C)c1O` (stereo not shown) [Example 4, N-(3-(4-Hydroxy-3,5-di-tert-butylphenyl)-2-isoxazolin-5-ylmethoxycarbonyl)glycine], for which the negative logarithm of the IC50 (pIC50) in assay [1] is 4.52.
On the same count and under the same terms, next, `CC(C)(C)c1cc(C2=NOC(C(N)=O)C2)cc(C(C)(C)C)c1O` (stereo not shown) [Example 11]: more than 5.30.
Still for that read-out and setting: with `CC(C)(C)c1cc(-c2cc(C(C)(C)O)on2)cc(C(C)(C)C)c1O` [Example 29] the figure was more than 5.30.
For `CCC(C)(O)c1cc(-c2cc(C(C)(C)C)c(O)c(C(C)(C)C)c2)no1` (stereo not shown) [Example 31], the activity at 100 µM in assay [2] (setting [3]) stood at 100%.
In the case of `CCOC(=O)COC(C)(C)c1cc(-c2cc(C(C)(C)C)c(O)c(C(C)(C)C)c2)no1` [Example 33, Ethyl (1-(3-(4-hydroxy-3,5-di-tert-butylphenyl)isoxazol-5-yl)-1-methylethoxy)acetate], the negative logarithm of the IC50 (pIC50) in assay [1] is more than 5.30.
In the case of `CC(C)(C)c1cc(-c2cc(C(C)(C)OCC(=O)O)on2)cc(C(C)(C)C)c1O` [Example 34, (1-(3-(4-Hydroxy-3,5-di-tert-butylphenyl)isoxazol-5-yl)-1-methylethoxy)acetic acid], the activity at 100 µM in assay [2] (setting [3]) was 98%.
On to `CN(O)C(=O)C(C)(C)OCc1cc(-c2cc(C(C)(C)C)c(O)c(C(C)(C)C)c2)no1` [Example 37, N-Methylhydroxamoyl-2-((3-(4-hydroxy-3,5-di-tert-butylphenyl)isoxazol-5-ylmethoxy)-2-methyl propionate], for which the pIC50 in assay [1] is more than 5.30.
As for `CCOC(=O)CNC(=O)OCc1cc(-c2cc(C(C)(C)C)c(O)c(C(C)(C)C)c2)no1` [Example 39, N-(3-(4-Hydroxy-3,5-di-tert-butylphenyl)isoxazol-5-ylmethoxycarbonyl)glycine ethyl ester], in assay [1], the negative logarithm of the IC50 (pIC50) was 4.52. Further, the activity at 100 µM in assay [2] (setting [3]) was found to be 98%.
Regarding `CC(C)(C)c1cc(-c2cc(CCCOC(=O)NCC(=O)O)on2)cc(C(C)(C)C)c1O` [Example 42, N-(3-(4-Hydroxy-3,5-di-tert-butylphenyl)isoxazol-5-ylpropoxycarbonyl)glycine], in assay [1], the pIC50 was 5.00 to 5.30.
`COC(=O)CCc1cc(-c2cc(C(C)(C)C)c(O)c(C(C)(C)C)c2)no1` [Example 44]: the pIC50 in assay [1] was 5.00 to 5.30. In assay [2] (Homo sapiens, 10 μM, read-out: Test 5 residual activity (cyclooxygenase-dependent thrombocyte aggregation), percent of control), the activity at 10 µM was 99%.
For the compound `CC(C)(C)c1cc(-c2cc(CCC(=O)O)on2)cc(C(C)(C)C)c1O` [Example 45, 3-(4-Hydroxy-3,5-di-tert-butylphenyl)isoxazol-5-ylpropionic acid], the negative logarithm of the IC50 (pIC50) in assay [1] was 5.00 to 5.30. Besides, in assay [2] (setting [3]), the activity at 100 µM is 98%.
The corresponding values for `CCOP(=O)(/C=C/c1cc(-c2cc(C(C)(C)C)c(O)c(C(C)(C)C)c2)no1)OCC` [Example 57, Diethyl 2-(3-(4-hydroxy-3,5-di-tert-butylphenyl)isoxazol-5-yl)vinylphosphonate] are more than 5.30 and 99%.
With `CC(C)(C)c1cc(-c2cc(/C=C/P(=O)(O)O)on2)cc(C(C)(C)C)c1O` [Example 58, 2-(3-(4-Hydroxy-3,5-di-tert-butylphenyl)isoxazol-5-yl)vinylphosphonic acid], in assay [2] (setting [3]), the activity at 100 µM worked out at 99%.
Consider `CC(O)CC(O)CC1CC(c2cc(C(C)(C)C)c(O)c(C(C)(C)C)c2)=NO1` (stereo not shown) [Example 78], for which the negative logarithm of the IC50 (pIC50) in assay [1] was 5.00 to 5.30. Further, the activity at 50 µM in assay [2] (setting [4]) stood at 94%.
Turning to `C=CCC(O)CC1CC(c2cc(C(C)(C)C)c(O)c(C(C)(C)C)c2)=NO1` (stereo not shown) [Example 79], in assay [1], the pIC50 is 5.00 to 5.30. In assay [2] (setting [3]), the activity at 100 µM came to 96%.
`C=CCC(O)CC1CC(c2cc(C(C)(C)C)c(O)c(C(C)(C)C)c2)=NO1` (stereo not shown) [Example 80]: the pIC50 in assay [1] is 5.00 to 5.30. Moreover, the activity at 50 µM in assay [2] (setting [4]) is 97%.
`CC(=O)O[C@@H](C(=O)O)[C@@H](OC(C)=O)C(=O)NCc1cc(-c2cc(C(C)(C)C)c(O)c(C(C)(C)C)c2)no1` [Example 82, Di-O-acetyl-L-tartaric acid-N-(3-(4-hydroxy-3,5-di-tert-butylphenyl)isoxazol-5-yl)methylamide]: the activity at 100 µM in assay [2] (setting [3]) came to 93%.
